Laboratory results published in patent US10799522B2, “Compositions and methods relating to galectin detection” (Wayne State University, priority 2015, dated 2020).

Test: radiation dosimetry estimates for human patients
Details: adult male
[1] = target organ Urinary Bladder Wall

**Q.** What does the source list for `OCC1OC(SC2OC(CO)C(O)C(n3cc(-c4cccc([18F])c4)nn3)C2O)C(O)C(n2cc(-c3cccc(F)c3)nn2)C1O` [[^18F]FPTDG, 3-(3-[^18F]fluorophenyltriazolyl)-3-deoxy-3′-(3-fluorophenyltriazolyl)-3′-deoxy-1-thio-β-D-digalactopyranoside]?
**A.** Estimated organ dose, ED Cont. (target organ Ovaries): 1.20 mSv per 370 MBq dose or 10 mCi; Estimated organ dose, EDE Cont. (target organ Ovaries): 1.50 mSv per 370 MBq dose or 10 mCi; Estimated organ dose, Photon (target organ Ovaries): 4.32 mSv per 370 MBq dose or 10 mCi; Estimated organ dose, Total (target organ Ovaries): 6.02 mSv per 370 MBq dose or 10 mCi; Estimated organ dose, Alpha (target organ Pancreas): 0 mSv per 370 MBq dose or 10 mCi; Estimated organ dose, Beta (target organ Pancreas): 1.70 mSv per 370 MBq dose or 10 mCi; Estimated organ dose, ED Cont. (target organ Pancreas): 0.03 mSv per 370 MBq dose or 10 mCi; Estimated organ dose, EDE Cont. (target organ Pancreas): 0.35 mSv per 370 MBq dose or 10 mCi; Estimated organ dose, Photon (target organ Pancreas): 4.2 mSv per 370 MBq dose or 10 mCi; Estimated organ dose, Total (target organ Pancreas): 5.90 mSv per 370 MBq dose or 10 mCi; Estimated organ dose, Alpha (target organ Red Marrow): 0 mSv per 370 MBq dose or 10 mCi; Estimated organ dose, Beta (target organ Red Marrow): 1.21 mSv per 370 MBq dose or 10 mCi; Estimated organ dose, ED Cont. (target organ Red Marrow): 0.51 mSv per 370 MBq dose or 10 mCi; Estimated organ dose, EDE Cont. (target organ Red Marrow): 0.51 mSv per 370 MBq dose or 10 mCi; Estimated organ dose, Photon (target organ Red Marrow): 3.03 mSv per 370 MBq dose or 10 mCi; Estimated organ dose, Total (target organ Red Marrow): 4.24 mSv per 370 MBq dose or 10 mCi; Estimated organ dose, Alpha (target organ Skin): 0 mSv per 370 MBq dose or 10 mCi; Estimated organ dose, Beta (target organ Skin): 1.70 mSv per 370 MBq dose or 10 mCi; Estimated organ dose, ED Cont. (target organ Skin): 0.03 mSv per 370 MBq dose or 10 mCi; Estimated organ dose, EDE Cont. (target organ Skin): 0.00 mSv per 370 MBq dose or 10 mCi; Estimated organ dose, Photon (target organ Skin): 1.76 mSv per 370 MBq dose or 10 mCi; Estimated organ dose, Total (target organ Skin): 3.46 mSv per 370 MBq dose or 10 mCi; Estimated organ dose, Alpha (target organ Small Intestine): 0 mSv per 370 MBq dose or 10 mCi; Estimated organ dose, Beta (target organ Small Intestine): 4.15 mSv per 370 MBq dose or 10 mCi; Estimated organ dose, ED Cont. (target organ Small Intestine): 0.04 mSv per 370 MBq dose or 10 mCi; Estimated organ dose, EDE Cont. (target organ Small Intestine): 0.50 mSv per 370 MBq dose or 10 mCi; Estimated organ dose, Photon (target organ Small Intestine): 4.21 mSv per 370 MBq dose or 10 mCi; Estimated organ dose, Total (target organ Small Intestine): 8.36 mSv per 370 MBq dose or 10 mCi; Estimated organ dose, Alpha (target organ Spleen): 0 mSv per 370 MBq dose or 10 mCi; Estimated organ dose, Beta (target organ Spleen): 1.70 mSv per 370 MBq dose or 10 mCi; Estimated organ dose, ED Cont. (target organ Spleen): 0.03 mSv per 370 MBq dose or 10 mCi; Estimated organ dose, EDE Cont. (target organ Spleen): 0.00 mSv per 370 MBq dose or 10 mCi; Estimated organ dose, Photon (target organ Spleen): 3.52 mSv per 370 MBq dose or 10 mCi; Estimated organ dose, Total (target organ Spleen): 5.22 mSv per 370 MBq dose or 10 mCi; Estimated organ dose, Alpha (target organ Stomach Wall): 0 mSv per 370 MBq dose or 10 mCi; Estimated organ dose, Beta (target organ Stomach Wall): 9.17 mSv per 370 MBq dose or 10 mCi; Estimated organ dose, ED Cont. (target organ Stomach Wall): 1.79 mSv per 370 MBq dose or 10 mCi; Estimated organ dose, EDE Cont. (target organ Stomach Wall): 0.90 mSv per 370 MBq dose or 10 mCi; Estimated organ dose, Photon (target organ Stomach Wall): 5.78 mSv per 370 MBq dose or 10 mCi; Estimated organ dose, Total (target organ Stomach Wall): 14.90 mSv per 370 MBq dose or 10 mCi; Estimated organ dose, Alpha (target organ Testes): 0 mSv per 370 MBq dose or 10 mCi; Estimated organ dose, Beta (target organ Testes): 1.70 mSv per 370 MBq dose or 10 mCi; Estimated organ dose, ED Cont. (target organ Testes): 0.00 mSv per 370 MBq dose or 10 mCi; Estimated organ dose, EDE Cont. (target organ Testes): 0.00 mSv per 370 MBq dose or 10 mCi; Estimated organ dose, Photon (target organ Testes): 2.67 mSv per 370 MBq dose or 10 mCi; Estimated organ dose, Total (target organ Testes): 4.37 mSv per 370 MBq dose or 10 mCi; Estimated organ dose, Alpha (target organ Thymus): 0 mSv per 370 MBq dose or 10 mCi; Estimated organ dose, Beta (target organ Thymus): 1.70 mSv per 370 MBq dose or 10 mCi; Estimated organ dose, ED Cont. (target organ Thymus): 0.02 mSv per 370 MBq dose or 10 mCi; Estimated organ dose, EDE Cont. (target organ Thymus): 0.00 mSv per 370 MBq dose or 10 mCi; Estimated organ dose, Photon (target organ Thymus): 2.63 mSv per 370 MBq dose or 10 mCi; Estimated organ dose, Total (target organ Thymus): 4.33 mSv per 370 MBq dose or 10 mCi; Estimated organ dose, Alpha (target organ Thyroid): 0 mSv per 370 MBq dose or 10 mCi; Estimated organ dose, Beta (target organ Thyroid): 1.70 mSv per 370 MBq dose or 10 mCi; Estimated organ dose, ED Cont. (target organ Thyroid): 0.22 mSv per 370 MBq dose or 10 mCi; Estimated organ dose, EDE Cont. (target organ Thyroid): 0.13 mSv per 370 MBq dose or 10 mCi; Estimated organ dose, Photon (target organ Thyroid): 2.78 mSv per 370 MBq dose or 10 mCi; Estimated organ dose, Total (target organ Thyroid): 4.48 mSv per 370 MBq dose or 10 mCi; Estimated organ dose, Alpha (target organ ULI Wall): 0 mSv per 370 MBq dose or 10 mCi; Estimated organ dose, Beta (target organ ULI Wall): 1.70 mSv per 370 MBq dose or 10 mCi; Estimated organ dose, ED Cont. (target organ ULI Wall): 0.03 mSv per 370 MBq dose or 10 mCi; Estimated organ dose, EDE Cont. (target organ ULI Wall): 0.00 mSv per 370 MBq dose or 10 mCi; Estimated organ dose, Photon (target organ ULI Wall): 4.02 mSv per 370 MBq dose or 10 mCi; Estimated organ dose, Total (target organ ULI Wall): 5.71 mSv per 370 MBq dose or 10 mCi; Estimated organ dose, Alpha [1]: 0 mSv per 370 MBq dose or 10 mCi; Estimated organ dose, Beta [1]: 1.70 mSv per 370 MBq dose or 10 mCi; Estimated organ dose, ED Cont. [1]: 0.27 mSv per 370 MBq dose or 10 mCi; Estimated organ dose, EDE Cont. [1]: 0.00 mSv per 370 MBq dose or 10 mCi; Estimated organ dose, Photon [1]: 3.63 mSv per 370 MBq dose or 10 mCi; Estimated organ dose, Total [1]: 5.33 mSv per 370 MBq dose or 10 mCi; Estimated organ dose, Alpha (target organ Uterus): 0 mSv per 370 MBq dose or 10 mCi; Estimated organ dose, Beta (target organ Uterus): 1.70 mSv per 370 MBq dose or 10 mCi; Estimated organ dose, ED Cont. (target organ Uterus): 0.03 mSv per 370 MBq dose or 10 mCi; Estimated organ dose, EDE Cont. (target organ Uterus): 0.35 mSv per 370 MBq dose or 10 mCi; Estimated organ dose, Photon (target organ Uterus): 4.06 mSv per 370 MBq dose or 10 mCi; Estimated organ dose, Total (target organ Uterus): 5.76 mSv per 370 MBq dose or 10 mCi
